Our source for the IC50 values is patent US12624024B2, “EP2 antagonist compounds” (Reservoir Neuroscience, Inc., priority 2021, dated 2026).

T1 sequence (P43116 whole entry): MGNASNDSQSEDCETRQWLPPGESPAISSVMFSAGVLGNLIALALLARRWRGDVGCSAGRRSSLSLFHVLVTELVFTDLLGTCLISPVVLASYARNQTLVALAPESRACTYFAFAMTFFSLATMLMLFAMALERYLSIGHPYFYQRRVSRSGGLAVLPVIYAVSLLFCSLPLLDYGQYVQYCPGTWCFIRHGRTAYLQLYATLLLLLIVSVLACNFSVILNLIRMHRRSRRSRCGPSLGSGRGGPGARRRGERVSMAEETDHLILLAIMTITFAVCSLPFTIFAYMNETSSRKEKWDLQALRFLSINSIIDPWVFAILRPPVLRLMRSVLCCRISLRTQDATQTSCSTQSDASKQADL

This experiment concerns the target T1, EP2 receptor (Homo sapiens, UniProt P43116).
T1 construct: expressed in transfected cells; host or cells: CHO-K1 cells (ATCC), transient transfection with FuGENE 6
As to the kind of experiment: EP2 Potency Assay (cAMP TR-FRET, CHO-K1 cells transfected with EP2 receptor, PGE2 at EC80). Format: cell-based. The settings on record: CHO-K1 cells expressing EP2, prostaglandin E2 at EC80, read-out: EP2 Potency (IC50 category). The procedure:
Compound potency was measured using a cAMP TR-FRET assay.
After 6 hours incubation, the cell media was replaced with F12 medium supplemented with 10% FBS and 100 U/ml Pen-Strep. 24 hours after transfection, cells were harvested and seeded at a density of 3000 cells/well in a 384 well plate to perform the cAMP assay, using the LANCE Ultra cAMP assay kit (PerkinElmer).
Plates were then centrifuged at 1000 rpm for 1 min, agitated at 600 rpm at R.T. for 2 min, and incubated at 25° C. for 5 min. The reference agonist, prostaglandin E2 (MCE), was added to each well at the appropriate concentration to reach its EC80 value. Plates were then centrifuged at 1000 rpm for 1 min, agitated at 600 rpm at R.T. for 2 min, and incubated at 25° C. for 30 min.
A dose-response curve was prepared by plotting percent inhibition for each compound concentration, and then IC50 was calculated by fitting a curve to the plotted values and extrapolating the IC50 concentration.
Background: In TR-FRET formats the signal depends on donor and acceptor labels being close together.
What is called IC50 is the concentration needed to halve the response being measured. On to `COc1ncc(CN2CCOc3c(Cl)cc(N4CCS(=O)(=O)c5ccccc54)cc3C2)cn1` [Compound 53], for which the half-inhibitory concentration (IC50) was > 5000 nM.

Consider `COc1ncc(CN2CCOc3c(Cl)cc(-c4cccc5ccccc45)cc3C2)cn1` [Compound 54], for which the IC50 was in the range of 1000 to 5000 nM.

For `COc1ncc(CN2CCOc3c(Cl)cc(-c4cccc5c4CCCC5)cc3C2)cn1` [Compound 55], the IC50 was > 5000 nM.

For the compound `COc1ncc(CN2CCOc3c(Cl)cc(-c4coc5ccccc45)cc3C2)cn1` [Compound 56], the IC50 lay in the range of 1000 to 5000 nM.

Turning to `COc1ncc(CN2CCOc3c(Cl)cc(-c4cccc5c4OCCO5)cc3C2)cn1` [Compound 57], the IC50 is > 5000 nM.

Turning to `N#Cc1ccc2c(ccn2-c2cc(Cl)c3c(c2)CN(Cc2cnc(=O)[nH]c2)CCO3)c1` [Compound 59], the 50% inhibitory concentration (IC50) was 1000 to 5000 nM.

In the case of `O=c1ncc(CN2CCOc3c(Cl)cc(-n4ccc5cc(C(F)(F)F)ccc54)cc3C2)c[nH]1` [Compound 60], the half-inhibitory concentration (IC50) lay within 1000 to 5000 nM.

`CN(C)c1ccc2c(ccn2-c2cc(Cl)c3c(c2)CN(Cc2cnc(=O)[nH]c2)CCO3)c1` [Compound 61]: the IC50 is > 5000 nM.

For the compound `O=c1ncc(CN2CCOc3c(Cl)cc(-n4ccc5cc(Cl)ccc54)cc3C2)c[nH]1` [Compound 62], the IC50 fell in the range of 100 to 500 nM.

`O=c1ncc(CN2CCOc3c(Cl)cc(-n4ccc5c(F)c(F)ccc54)cc3C2)c[nH]1` [Compound 64]: the IC50 is < 100 nM.

In the case of `O=c1ncc(CN2CCOc3c(Cl)cc(-n4ccc5c(F)c(Cl)ccc54)cc3C2)c[nH]1` [Compound 65], the half-maximal inhibitory concentration (IC50) lay in the range of 500 to 1000 nM.

Regarding `Cc1cc2cc(F)ccc2n1-c1cc(Cl)c2c(c1)CN(Cc1cnc(=O)[nH]c1)CCO2` [Compound 66], the IC50 fell in the range of 1000 to 5000 nM.

For the compound `Cc1cn(-c2cc(Cl)c3c(c2)CN(Cc2cnc(=O)[nH]c2)CCO3)c2ccc(F)cc12` [Compound 67], the IC50 fell in the range of 100 to 500 nM.

As to `O=c1ncc(CN2CCOc3c(Cl)cc(-n4ccc5ncccc54)cc3C2)c[nH]1` [Compound 68], the concentration for half-maximal inhibition (IC50) was in the range of 500 to 1000 nM.

In the case of `O=c1ncc(CN2CCOc3c(Cl)cc(-n4ccc5cccnc54)cc3C2)c[nH]1` [Compound 69], the IC50 was > 5000 nM.

With `O=c1ncc(CN2CCOc3c(Cl)cc(-n4ccc5cc(F)cnc54)cc3C2)c[nH]1` [Compound 70, 5-((9-chloro-7-(5-fluoro-1H-pyrrolo[2,3-b]pyridin-1-yl)-2,3-dihydrobenzo[f][1,4]oxazepin-4(5H)-yl)methyl)pyrimidin-2(1H)-one], the half-inhibitory concentration (IC50) lay in the range of 1000 to 5000 nM.

Take `O=c1ncc(CN2CCOc3c(Cl)cc(-n4ccc5ccncc54)cc3C2)c[nH]1` [Compound 71]: the half-inhibitory concentration (IC50) was > 5000 nM.

As for `O=c1ncc(CN2CCOc3c(Cl)cc(-n4ccc5cc(Cl)ncc54)cc3C2)c[nH]1` [Compound 72], the IC50 is > 5000 nM.

Turning to `O=c1ncc(CN2CCOc3c(Cl)cc(-n4ccc5cnccc54)cc3C2)c[nH]1` [Compound 73], the IC50 is > 5000 nM.

In the case of `O=c1ncc(CN2CCOc3c(Cl)cc(-c4cccc5nccn45)cc3C2)c[nH]1` [Compound 74], the IC50 was 1000 to 5000 nM.

Take `O=c1ncc(CN2CCOc3c(Cl)cc(-c4ncc5ccccn45)cc3C2)c[nH]1` [Compound 75]: the IC50 was in the range of 500 to 1000 nM.

As for `O=c1ncc(CN2CCOc3c(Cl)cc(-n4ccc5nccnc54)cc3C2)c[nH]1` [Compound 76, 5-[(9-chloro-7-{pyrrolo[2,3-b]pyrazin-5-yl}-3,5-dihydro-2H-1,4-benzoxazepin-4-yl)methyl]-1H-pyrimidin-2-one trifluoroacetic acid], the half-maximal inhibitory concentration (IC50) was > 5000 nM.

In the case of `O=c1ncc(CN2CCOc3c(Cl)cc(-n4ccc5cncnc54)cc3C2)c[nH]1` [Compound 77], the IC50 is > 5000 nM.

As for `O=c1ncc(CN2CCOc3c(Cl)cc(N4CCc5cc(F)ccc54)cc3C2)c[nH]1` [Compound 78], the IC50 lay in the range of 100 to 500 nM.

With `O=c1ncc(CN2CCOc3c(Cl)cc(N4CCc5cc(Cl)ccc54)cc3C2)c[nH]1` [Compound 79], the half-inhibitory concentration (IC50) lay in the range of 100 to 500 nM.

`O=c1ncc(CN2CCOc3c(Cl)cc(N4CCCc5cc(F)ccc54)cc3C2)c[nH]1` [Compound 80]: the half-inhibitory concentration (IC50) lay in the range of 1000 to 5000 nM.
